Experimental data from article PMC12441834, “Highly Potent and Subtype-Selective Sperm-Specific Potassium Channel SLO3 Inhibitors Display High Tissue Exposure in the Murine Female Reproductive Tract” (ACS Pharmacology & Translational Science, 2025).
Where two headings read alike, the source gives them in different places.

How the values were obtained:
Adrenergic α1A = Adrenergic α1A (Homo sapiens, UniProt P35348); assay: LeadProfilingScreen radioligand binding
CYP1A2 = CYP1A2 (Homo sapiens, UniProt P05177); assay: CYP450 inhibition; type: in vitro ADME; conditions: read-out: CYP450 Inhibition, 1A2
[1] = target: Epidermal Growth Factor (EGF) (Homo sapiens, UniProt P00533); assay: LeadProfilingScreen radioligand binding
Bradykinin B1 = Bradykinin B1 (Homo sapiens, UniProt P46663); assay: LeadProfilingScreen radioligand binding
[2] = test system: Calcium Channel L-Type, Dihydropyridine; assay: LeadProfilingScreen radioligand binding; parameters: species or system rat
Rolipram = assay: LeadProfilingScreen radioligand binding; parameters: species or system rat
[3] = target: Serotonin (5-Hydroxytryptamine) 5-HT2B (Homo sapiens, UniProt P41595); assay: LeadProfilingScreen radioligand binding
Endothelin ETB = Endothelin ETB (Homo sapiens, UniProt P24530); assay: LeadProfilingScreen radioligand binding
Adrenergic α1D = Adrenergic α1D (Homo sapiens, UniProt P25100); assay: LeadProfilingScreen radioligand binding
Opiate κ (OP2, KOP) = Opiate κ (OP2, KOP) (Homo sapiens, UniProt P41145); assay: LeadProfilingScreen radioligand binding
[4] = test system: Glutamate, NMDA, Phencyclidine; assay: LeadProfilingScreen radioligand binding; parameters: species or system rat
hERG = target: T1, hERG (Homo sapiens, UniProt Q12809); assay: hERG patch clamp electrophysiology (HEK-293-hERG); type: cell-based; conditions: for IC50: whole-cell patch clamp, HEK-293-hERG; for selectivity ratio: pH 7.35, hERG IC50 / hSLO3 IC50, read-out: hERG selectivity [fold] (SLO3 versus hERG)
T1 construct: expressed in transfected cells
Experimental: Whole-cell patch-clamp electrophysiology was used to record hERG currents from a stably transfected monoclonal cell line expressing human hERG. The HEK-293-hERG cell line was generously provided by Dr. David Weaver (Vanderbilt University). Cells were cultured in a 5% CO2 incubator at 37 °C, dissociated with 0.25% Trypsin-EDTA, and seeded onto 12 mm circular coverslips (Electron Microscopy Sciences, PA, USA) for same-day whole-cell patch-clamp recordings. hERG currents were recorded at room temperature by using an AxoPatch 200B amplifier with Clampex 10.7 software (Molecular Devices, USA). The voltage-clamp protocol consisted of a 4-s step to +30 mV from a −80 mV holding potential, followed by a 4-s step to −40 mV, repeated every 10 s. Data were sampled at 5 kHz and filtered at 1 kHz. Patch pipettes, pulled from 1.5 mm OD thin-walled capillaries (Warner Instruments, MA, USA) using a Sutter P-1000 puller (Sutter Instrument, CA, USA), had resistances of 2–3 MΩ when filled with intracellular solution containing (mM): 135 KCl, 10 HEPES, 1 EGTA, 2 MgCl2, 2 Na2ATP (pH 7.35, adjusted with KOH). The extracellular solution contained (mM): 135 NaCl, 5 KCl, 2 CaCl2, 1 MgCl2, 5 Glucose, 10 HEPES, and 10 Sucrose (pH 7.35, adjusted with NaOH). After establishing stable baseline hERG currents, cells were perfused with compounds at concentrations of 0.03–30 μM until response saturation (typically 2–8 min). Recordings concluded with a 10 μM Quinidine solution to isolate Quinidine-sensitive currents, with compound responses expressed as fractions of this current. Peak “tail” current amplitudes at the beginning of −40 mV steps were analyzed using Clampfit 11.2 (Molecular Devices). IC50 values were calculated by fitting the Hill equation to concentration–response curves (CRCs) using the built-in Y = Bottom + (Top – Bottom)/(1 + (IC50/X)^HillSlope) model (nonlinear regression fit: [Inhibitor] vs response – Variable slope (four parameters)) in GraphPad Prism 10.4 (GraphPad Software).

Glutamate, Kainate = assay: LeadProfilingScreen radioligand binding; parameters: species or system rat
Histamine H1 = Histamine H1 (Homo sapiens, UniProt P35367); assay: LeadProfilingScreen radioligand binding
Sigma σ1 = Sigma σ1 (Homo sapiens, UniProt Q99720); assay: LeadProfilingScreen radioligand binding
Androgen (Testosterone) = Androgen (Testosterone) (Homo sapiens, UniProt P10275); assay: LeadProfilingScreen radioligand binding
[5] = target: Nicotinic Acetylcholine α3β4 (Homo sapiens, UniProt P30926+P32297); assay: LeadProfilingScreen radioligand binding
CYP2D6 = CYP2D6 (Homo sapiens, UniProt P10635); assay: CYP450 inhibition; type: in vitro ADME; conditions: read-out: CYP450 Inhibition, 2D6
GABAA, Muscimol, Central = assay: LeadProfilingScreen radioligand binding; parameters: species or system rat
[6] = Plasma protein binding, equilibrium dialysis; type: in vitro ADME
Experimental: Determination of compounds’ fraction unbound (f u ) in plasma from mouse, rat, and human was conducted in vitro via equilibrium dialysis using HTDialysis membrane plates. Dialysis membranes were hydrated as described by the manufacturer and inserted into the HTD plate, which was assembled and prepared for sample addition by the dispensing of blank buffer (Dulbecco’s Phosphate-Buffered Saline, 100 μL/well) into the trans chamber of each membrane-split well. Each compound was diluted into plasma from each species (5 μM final concentration), which was aliquoted in triplicate in the cis chamber of the prepared HTD plate wells. The HTD plate was sealed and incubated for 6 h at 37 °C. Following incubation, each well (both cis and trans chambers) was transferred (20 μL) to the corresponding wells of a 96-shallow-well (V-bottom) plate. The daughter plates were then matrix-matched (buffer-side wells received an equal volume of plasma, and plasma-side wells received an equal volume of buffer), and an extraction solution (120 μL; acetonitrile containing 50 nM carbamazepine as an internal standard (IS)) was added to all wells of both daughter plates to precipitate protein and extract the test article. The plates were then sealed and centrifuged (3500 rcf) for 10 min at ambient temperature. Supernatant (60 μL) from each well of the daughter plates was then transferred to the corresponding wells of new daughter plates (96-shallow-well, V-bottom) containing water (Milli-Q, 60 μL/well), and the plates were sealed in preparation for liquid chromatography–tandem mass spectrometry (LC-MS/MS) analysis (see below).

Tachykinin NK1 = Tachykinin NK1 (Homo sapiens, UniProt P25103); assay: LeadProfilingScreen radioligand binding
[7] = human, fraction unbound, equilibrium dialysis, 5 μM, read-out: Plasma Protein Binding (fu) Human
[8] = mouse, equilibrium dialysis, 5 μM, read-out: Plasma Protein Binding (fu) Mouse
[9] = rat, equilibrium dialysis, 5 μM, read-out: Plasma Protein Binding (fu) Rat
[10] = human, HEK-293 cells stably expressing hERG

T1 sequence (Q12809 whole entry): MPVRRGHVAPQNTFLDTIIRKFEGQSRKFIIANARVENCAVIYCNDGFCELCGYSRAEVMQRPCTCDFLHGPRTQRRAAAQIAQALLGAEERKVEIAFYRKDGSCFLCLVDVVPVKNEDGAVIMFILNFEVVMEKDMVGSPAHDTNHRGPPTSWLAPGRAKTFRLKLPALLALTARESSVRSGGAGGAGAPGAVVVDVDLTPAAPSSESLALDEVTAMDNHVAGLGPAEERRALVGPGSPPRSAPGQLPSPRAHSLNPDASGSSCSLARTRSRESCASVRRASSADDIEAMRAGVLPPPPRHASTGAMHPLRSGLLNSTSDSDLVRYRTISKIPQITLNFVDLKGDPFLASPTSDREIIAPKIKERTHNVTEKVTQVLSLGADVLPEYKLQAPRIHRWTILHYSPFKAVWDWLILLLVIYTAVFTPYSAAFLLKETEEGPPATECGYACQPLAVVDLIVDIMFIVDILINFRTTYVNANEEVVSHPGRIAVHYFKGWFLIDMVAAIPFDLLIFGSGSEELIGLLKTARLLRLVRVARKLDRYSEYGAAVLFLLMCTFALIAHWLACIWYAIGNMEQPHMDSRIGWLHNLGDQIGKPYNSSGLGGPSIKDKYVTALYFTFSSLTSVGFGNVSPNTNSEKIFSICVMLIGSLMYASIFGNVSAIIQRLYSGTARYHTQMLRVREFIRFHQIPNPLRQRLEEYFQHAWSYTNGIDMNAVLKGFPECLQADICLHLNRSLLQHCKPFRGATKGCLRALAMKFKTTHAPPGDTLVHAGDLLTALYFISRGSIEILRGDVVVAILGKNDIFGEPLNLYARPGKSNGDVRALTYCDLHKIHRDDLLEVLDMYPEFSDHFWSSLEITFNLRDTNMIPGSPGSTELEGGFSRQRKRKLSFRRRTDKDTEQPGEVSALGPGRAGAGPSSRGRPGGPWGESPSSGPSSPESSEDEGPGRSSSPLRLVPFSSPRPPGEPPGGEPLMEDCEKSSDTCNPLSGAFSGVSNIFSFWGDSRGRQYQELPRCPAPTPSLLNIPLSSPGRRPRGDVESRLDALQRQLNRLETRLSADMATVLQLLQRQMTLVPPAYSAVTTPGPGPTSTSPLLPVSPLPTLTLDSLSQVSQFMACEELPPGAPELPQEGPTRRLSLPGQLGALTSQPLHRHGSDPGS
Opiate κ (OP2, KOP), sequence (P41145 whole entry): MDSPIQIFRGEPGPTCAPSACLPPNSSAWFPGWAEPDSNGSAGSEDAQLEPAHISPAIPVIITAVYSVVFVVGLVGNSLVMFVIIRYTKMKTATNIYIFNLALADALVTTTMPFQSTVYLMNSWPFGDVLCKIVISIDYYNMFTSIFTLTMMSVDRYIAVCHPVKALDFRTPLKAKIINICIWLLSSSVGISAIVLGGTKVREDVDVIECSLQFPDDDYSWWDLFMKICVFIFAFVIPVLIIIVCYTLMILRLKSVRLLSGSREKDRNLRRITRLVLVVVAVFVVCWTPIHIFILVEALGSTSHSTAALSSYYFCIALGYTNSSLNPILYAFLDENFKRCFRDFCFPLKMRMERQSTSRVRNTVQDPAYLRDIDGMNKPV
Sigma σ1, sequence (Q99720 whole entry): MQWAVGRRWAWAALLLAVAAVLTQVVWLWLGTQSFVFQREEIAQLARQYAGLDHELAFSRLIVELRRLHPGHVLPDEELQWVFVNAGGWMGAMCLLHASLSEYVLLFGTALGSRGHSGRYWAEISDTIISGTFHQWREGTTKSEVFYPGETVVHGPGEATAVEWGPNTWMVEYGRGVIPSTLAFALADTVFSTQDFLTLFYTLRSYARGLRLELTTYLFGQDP
Androgen (Testosterone), sequence (P10275 whole entry): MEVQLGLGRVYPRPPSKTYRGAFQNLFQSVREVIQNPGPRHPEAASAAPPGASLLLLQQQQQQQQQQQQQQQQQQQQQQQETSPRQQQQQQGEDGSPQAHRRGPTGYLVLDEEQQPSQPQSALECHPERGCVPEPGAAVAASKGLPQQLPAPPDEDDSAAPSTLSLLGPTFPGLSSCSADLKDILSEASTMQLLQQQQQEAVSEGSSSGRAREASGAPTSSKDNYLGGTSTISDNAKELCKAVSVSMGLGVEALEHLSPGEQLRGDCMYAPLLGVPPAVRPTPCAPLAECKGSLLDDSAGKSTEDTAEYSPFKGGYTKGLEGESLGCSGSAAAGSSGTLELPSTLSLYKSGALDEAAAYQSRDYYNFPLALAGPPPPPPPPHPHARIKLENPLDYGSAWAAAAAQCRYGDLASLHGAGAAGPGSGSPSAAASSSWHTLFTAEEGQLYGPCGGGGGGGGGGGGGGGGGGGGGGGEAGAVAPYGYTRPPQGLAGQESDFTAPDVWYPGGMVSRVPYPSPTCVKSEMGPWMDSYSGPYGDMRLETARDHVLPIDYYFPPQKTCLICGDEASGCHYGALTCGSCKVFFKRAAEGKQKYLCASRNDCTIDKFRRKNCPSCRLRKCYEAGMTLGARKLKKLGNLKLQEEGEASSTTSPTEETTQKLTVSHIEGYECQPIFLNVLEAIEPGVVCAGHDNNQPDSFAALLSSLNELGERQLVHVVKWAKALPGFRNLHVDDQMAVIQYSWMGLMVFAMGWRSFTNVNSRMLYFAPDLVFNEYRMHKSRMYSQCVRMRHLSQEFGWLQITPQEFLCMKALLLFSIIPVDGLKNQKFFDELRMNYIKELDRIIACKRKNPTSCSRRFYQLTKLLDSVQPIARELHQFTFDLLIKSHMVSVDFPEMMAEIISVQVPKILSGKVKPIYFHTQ
Endothelin ETB, sequence (P24530 27-442): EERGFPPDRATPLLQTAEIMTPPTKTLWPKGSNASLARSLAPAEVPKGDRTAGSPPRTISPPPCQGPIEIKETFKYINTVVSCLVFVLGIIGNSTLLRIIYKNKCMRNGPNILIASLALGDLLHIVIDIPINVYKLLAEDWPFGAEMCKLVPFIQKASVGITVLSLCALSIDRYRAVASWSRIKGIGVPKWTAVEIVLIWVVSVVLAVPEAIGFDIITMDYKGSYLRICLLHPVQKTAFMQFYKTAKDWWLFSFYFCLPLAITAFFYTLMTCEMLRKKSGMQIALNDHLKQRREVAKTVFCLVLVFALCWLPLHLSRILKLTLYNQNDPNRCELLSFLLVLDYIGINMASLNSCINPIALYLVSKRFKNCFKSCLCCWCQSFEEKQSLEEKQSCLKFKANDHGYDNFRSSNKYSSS
Epidermal Growth Factor (EGF), sequence (P00533 25-1210): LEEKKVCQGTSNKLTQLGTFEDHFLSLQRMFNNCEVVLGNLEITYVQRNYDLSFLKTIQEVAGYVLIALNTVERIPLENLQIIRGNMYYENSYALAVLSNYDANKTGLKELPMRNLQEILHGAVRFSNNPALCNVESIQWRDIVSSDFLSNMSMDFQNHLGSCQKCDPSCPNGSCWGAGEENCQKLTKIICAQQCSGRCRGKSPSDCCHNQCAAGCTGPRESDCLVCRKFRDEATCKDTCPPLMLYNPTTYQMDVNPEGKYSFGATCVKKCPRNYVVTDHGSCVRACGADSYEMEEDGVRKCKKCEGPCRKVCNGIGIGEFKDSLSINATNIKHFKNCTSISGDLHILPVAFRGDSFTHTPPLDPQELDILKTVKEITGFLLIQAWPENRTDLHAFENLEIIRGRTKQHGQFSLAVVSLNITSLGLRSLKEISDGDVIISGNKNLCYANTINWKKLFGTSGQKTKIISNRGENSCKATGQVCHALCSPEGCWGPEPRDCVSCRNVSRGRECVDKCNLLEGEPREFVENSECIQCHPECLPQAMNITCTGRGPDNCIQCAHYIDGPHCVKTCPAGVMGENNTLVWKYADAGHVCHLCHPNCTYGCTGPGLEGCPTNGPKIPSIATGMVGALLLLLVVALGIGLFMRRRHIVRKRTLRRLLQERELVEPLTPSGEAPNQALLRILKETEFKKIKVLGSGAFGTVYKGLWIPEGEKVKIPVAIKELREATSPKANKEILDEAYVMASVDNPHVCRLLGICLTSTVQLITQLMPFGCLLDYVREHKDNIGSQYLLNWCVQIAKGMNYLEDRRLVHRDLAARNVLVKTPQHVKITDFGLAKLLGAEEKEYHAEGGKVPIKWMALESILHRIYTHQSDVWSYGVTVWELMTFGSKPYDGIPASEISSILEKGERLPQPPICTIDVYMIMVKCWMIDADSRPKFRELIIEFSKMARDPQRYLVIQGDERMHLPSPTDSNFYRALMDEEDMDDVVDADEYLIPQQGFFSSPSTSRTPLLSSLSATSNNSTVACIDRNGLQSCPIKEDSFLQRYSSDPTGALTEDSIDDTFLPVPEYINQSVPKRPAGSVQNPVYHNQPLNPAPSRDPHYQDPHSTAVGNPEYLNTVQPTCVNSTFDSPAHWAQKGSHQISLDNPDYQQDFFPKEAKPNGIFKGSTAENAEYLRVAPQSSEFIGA
Histamine H1, sequence (P35367 whole entry): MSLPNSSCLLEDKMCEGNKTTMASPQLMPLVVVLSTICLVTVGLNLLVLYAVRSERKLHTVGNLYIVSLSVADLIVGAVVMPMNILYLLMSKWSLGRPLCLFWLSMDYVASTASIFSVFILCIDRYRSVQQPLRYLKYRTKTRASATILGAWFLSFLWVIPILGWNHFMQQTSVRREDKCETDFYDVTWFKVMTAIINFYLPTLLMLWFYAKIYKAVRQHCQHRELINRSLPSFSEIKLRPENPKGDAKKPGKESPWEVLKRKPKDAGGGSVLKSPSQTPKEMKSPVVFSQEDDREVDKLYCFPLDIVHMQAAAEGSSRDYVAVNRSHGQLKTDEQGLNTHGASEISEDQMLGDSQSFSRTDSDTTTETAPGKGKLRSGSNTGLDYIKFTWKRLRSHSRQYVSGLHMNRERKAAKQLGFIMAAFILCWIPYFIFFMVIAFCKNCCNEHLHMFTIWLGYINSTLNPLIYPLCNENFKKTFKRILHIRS

Row | SMILES | fraction unbound at 6 h, 5 μM [6, 7] | fraction unbound at 6 h, 5 μM [6, 8] | fraction unbound at 6 h, 5 μM [6, 9] | inhibition at 10 µM (Adrenergic α1A) [%] | IC50 (CYP1A2) [µM] | inhibition at 10 µM [1] [%] | inhibition at 10 µM (Bradykinin B1) [%] | % inhibition at 10 μM [2] [%] | % inhibition at 10 μM (Rolipram) [%] | inhibition at 10 µM [3] [%] | inhibition at 10 µM (Endothelin ETB) [%] | inhibition at 10 µM (Adrenergic α1D) [%] | inhibition at 10 µM (Opiate κ (OP2, KOP)) [%] | % inhibition at 10 μM [4] [%] | IC50 (hERG) [µM] | % inhibition at 10 μM (Glutamate, Kainate) [%] | inhibition at 10 µM (Histamine H1) [%] | inhibition at 10 µM (Sigma σ1) [%] | inhibition at 10 µM (Androgen (Testosterone)) [%] | inhibition at 10 µM [5] [%] | also measured
1 | Cc1cc(Cl)cc2sc(O[C@H]3CCN(C(=O)CCCS(=O)(=O)c4cccc(Br)c4)C[C@H]3F)nc12 [VU6047606] | 0.001 | 0.0002 | 0.001 | 4 | > 30 | 2 | -5 | 93 | 19 | 18 | 9 | 13 | -13 | 6 | 12 | -6 | 11 | 62 | 8 | -7 | IC50 (hERG; human, HEK-293 cells stably expressing hERG, pH 7.35): 12.7 µM; IC50 (CYP2D6): > 30 µM; % inhibition at 10 μM (GABAA, Muscimol, Central): 1%; fraction unbound at 6 h, 5 μM ([6]; human, fraction unbound as percent, read-out: fu in human plasma): < 0.01; fraction unbound at 6 h, 5 μM ([6]; mouse, read-out: fu in mouse plasma): < 0.01; fraction unbound at 6 h, 5 μM ([6]; rat, read-out: fu in rat plasma): < 0.01; inhibition at 10 µM (Tachykinin NK1): 8%
2 | O=C(c1ccc(OCc2ccc(OC(F)(F)F)cc2)cc1)N1CCN(c2ccc(C(F)(F)F)cn2)CC1 [VU6032735] | 0.0005 | 0.012 | 0.024 | -1 | > 30 | 5 | 4 | 76 | 7 | -6 | 1 | 2 | -16 | 8 | 28.3 | -4 | 14 | -3 | 1 | -6 | selectivity ratio (hERG; [10]): 172; IC50 (CYP2D6): > 30 µM; % inhibition at 10 μM (GABAA, Muscimol, Central): 0%; inhibition at 10 µM (Tachykinin NK1): 7%
3 | Cc1cc(Cl)cc2sc(O[C@@H]3CCN(C(=O)CCCS(=O)(=O)c4cccc(Br)c4)C[C@@H]3F)nc12 [VU6047608] | 0.001 | 0.004 | 0.002 |  |  |  |  |  |  |  |  |  |  |  |  |  |  |  |  |  | 
4 | Cc1cc(Cl)cc2sc(OC3CCN(C(=O)CCCS(=O)(=O)c4cccc(Br)c4)CC3F)nc12 (stereo not shown) [VU6045330] |  |  |  |  |  |  |  |  |  |  |  |  |  |  | 73.3 |  |  |  |  |  | selectivity ratio (hERG; [10]): 555

Second part, led by results:

Row | fraction unbound at 6 h, 5 μM [6, 7] | fraction unbound at 6 h, 5 μM [6, 8] | fraction unbound at 6 h, 5 μM [6, 9] | SMILES | inhibition at 10 µM (Adrenergic α1A) [%] | IC50 (CYP1A2) [µM] | inhibition at 10 µM [1] [%] | inhibition at 10 µM (Bradykinin B1) [%] | % inhibition at 10 μM [2] [%] | % inhibition at 10 μM (Rolipram) [%] | inhibition at 10 µM [3] [%] | inhibition at 10 µM (Endothelin ETB) [%] | inhibition at 10 µM (Adrenergic α1D) [%] | inhibition at 10 µM (Opiate κ (OP2, KOP)) [%] | % inhibition at 10 μM [4] [%] | IC50 (hERG) [µM] | % inhibition at 10 μM (Glutamate, Kainate) [%] | inhibition at 10 µM (Histamine H1) [%] | inhibition at 10 µM (Sigma σ1) [%] | inhibition at 10 µM (Androgen (Testosterone)) [%] | inhibition at 10 µM [5] [%] | also measured
5 | 0.002 | 0.008 | 0.004 | Cc1cc(Cl)cc2sc(O[C@H]3CCN(C(=O)CCCS(=O)(=O)c4cccc(Br)c4)C[C@@H]3F)nc12 [VU6047609] |  |  |  |  |  |  |  |  |  |  |  | 56 |  |  |  |  |  | 
6 | 0.002 | 0.004 | 0.004 | Cc1cc(Cl)cc2sc(O[C@@H]3CCN(C(=O)CCCS(=O)(=O)c4cccc(Br)c4)C[C@H]3F)nc12 [VU6047607] |  |  |  |  |  |  |  |  |  |  |  | 17 |  |  |  |  |  | 
